Data as given in US10206936B2, “Oxidized lipids and treatment or prevention of fibrosis” (Vascular Biogenics Ltd., priority 2014, dated 2019).
Where “and” joins values, the source holds several entries; their conditions need not be identical. Equal values may be shown once.

Columns and labels:
NASH mouse model = NASH mouse model (STZ + HFD): liver inflammation and fibrosis histology; format: in vivo; settings: NASH mice; for reduction of liver inflammation (inflammation score) vs vehicle: VB-201 4 mg/kg or telmisartan 10 mg/kg once daily for three weeks
Description: Neonatal male mice exposed to low-dose streptozotocin (STZ) develop liver steatosis with diabetes. Continuous high fat diet (HFD) increases lobular inflammation with foam cell-like macrophages, showing nonalcoholic steatohepatitis (NASH) pathology. NASH was induced in 40 male mice by a single subcutaneous injection of 200 μg per mouse of STZ two days after birth and feeding HFD [57 kcal % fat]) from four weeks of age. Vehicle, VB-201 (4 mg/kg), or telmisartan (10 mg/kg) as positive control, were administered once daily for three weeks, starting from six weeks of age. Mice were sacrificed at nine weeks of age.
Liver pathology was used to determine the effect of VB-201 on liver inflammation and fibrosis. Histology slides were stained with hematoxylin/eosin (H&E) to assess inflammation. The inflammation score was determined as follows:
Histology slides were stained with Sirius red to determine collagen content as a marker for the extent of fibrosis.

nephrectomized rats [1] = assay: 5/6 nephrectomy rat model: glomerular damage and sclerosis (PAS); format: in vivo, Sprague Dawley (SD) Rats; settings: for Glomerular sclerosis, Global % (Mean ± S.E) / Glomerular sclerosis, Global & Segmental % (Mean ± S.E) / Glomerular sclerosis, Segmental % (Mean ± S.E): Nx rats, VB-201 4 mg/kg or telmisartan 10 mg/kg, 8 weeks; for reduction of damaged glomeruli vs Nx PBS 0.5% Eth / reduction of sclerotic glomeruli vs Nx PBS 0.5% Eth: VB-201 4 mg/kg or telmisartan 10 mg/kg oral, 7 weeks, evaluated at 8 weeks
Description: Male Sprague Dawley (SD) Rats (Harlan Laboratories, Israel) with an initial weight of 200 g were housed 2-3 per cage in IVC cages in dedicated HVAC (heat, ventilation, air conditioning) animal facility. The facility had no exposure to outside light and was maintained on automatic alternating cycles of 12 hours of light and 12 hours of dark. Animals were provided with a commercial rodent diet (Harlan Teklad TRM Rat/Mouse Diet) ad libitum and allowed free access to autoclaved water, supplied to each cage via polysulphone bottles with stainless steel sipper tubes. All animal work was approved by the Animal Care and Use Committee of Israel (IL-13-03-027).
(§1) Rats were divided into three groups: (1) Healthy rats (n=3) in group A, (2) Sham group—subjected to chirurgical process but without kidney mass reduction (n=3) in group B, and (3) the rest were induced with chronic renal failure (n=24). Chronic renal failure was induced by a two stage (5/6) nephrectomy (Nx), with subtraction firstly of about ⅔ of the left kidney by left flank incision and, one week later, complete removal of the right kidney. General anesthesia consisted of intraperitoneal injection of ketamine 100 mg/kg and xylazine 20 mg/kg (0.85 ml ketamine+0.15 ml xylazine for each ml preparation; 1 μl/g BW was injected I.P).
One week following the second surgery, rats were randomly assigned to the following experimental groups:
Nephrectomized, orally administered with VB-201 4 mg/kg (n=8); and
Nephrectomized, orally administered with telmisartan 10 mg/kg as positive control (n=8).
(§2) Body weight (BW) was monitored throughout the study and rats were treated by oral gavage according to their body weight for 7 weeks. Rats were sacrificed by CO2 inhalation 8 weeks from removal of the right kidney (2nd surgery).
Upon sacrifice, at 8 weeks, kidneys were collected, weighed and fixed in 4% formaldehyde.
For light microscopy, paraffin-embedded tissue slides of 4 μm were stained with Periodic Acid-Schiff (PAS) reagent.
Glomerulosclerosis was assessed by PAS-stained sections using a semiquantitative scoring system. The extent of glomerulosclerosis was evaluated by examining mostly 100 randomly selected glomeruli at a magnification of ×400 and applying a score system according to the percentage of sclerosed glomerular area. The score was graded from 0 to 4: (0=0% area; 1=1-25%; 2=26-50%, 3=51-75%, 4=76% and above). The mean of all scored glomeruli was presented. Moreover, the extent of global and segmental glomerulosclerosis was evaluated in the same glomeruli, where <80% sclerosis was referred to as segmental and >80% was referred to as global.
The glomerular area of mostly 100 randomly selected glomeruli at a magnification of ×100 was quantitated by counting squares covered by glomeruli area using a grid and the mean glomeruli area was calculated.
Glomeruli were evaluated for their fibrosis extent by scoring and by calculation of the percent of glomeruli having segmental sclerosis, global sclerosis and the sum of global and segmental sclerotic glomeruli. Moreover, the area of the glomeruli was calculated and the percent of hypertrophied glomeruli was calculated. Damaged glomeruli included hypertrophied (at least ×1.5 from normal area) and or sclerotic glomeruli.

nephrectomized rats [2] = assay: 5/6 nephrectomy rat model: ED-1/CD68+ monocyte/macrophage infiltration, immunohistochemistry; format: in vivo, Sprague Dawley (SD) Rats; settings: VB-201 4 mg/kg or telmisartan 10 mg/kg, 8 weeks after surgery; for ED-1/CD68+ Glomerular monocytes/macrophages (Mean ± S.E) / ED-1/CD68+ Interstitial monocytes/macrophages (Mean ± S.E): Nx rats
From the text: as §1, §2
Renal tissues were fixed in 4% formaldehyde and embedded in paraffin. The paraffin-embedded tissues were then cut to form tissue slides of 4 μm. Immunohistochemistry of the paraffin-embedded tissue slides was analyzed using antibodies in the following concentration: monoclonal mouse anti rat CD-68 (ED-1, Serotec MCA341) 1:25. For quantitation of interstitial CD68+ staining, the number of positive cells was counted in 20 randomly selected non-overlapping fields per animal, and the mean value was presented.

Collagen IV = assay: 5/6 nephrectomy rat model: kidney Collagen IV mRNA, real-time PCR; format: in vivo, Sprague Dawley (SD) Rats; settings: kidney of Nx rats, 8 weeks; for reduction of Collagen IV mRNA expression vs Nx PBS 0.5% Eth: VB-201 4 mg/kg or telmisartan 10 mg/kg; for Collagen IV relative mRNA expression (mean ± SEM): normalized to TBP, relative to Sham PBS 0.5% Eth
From the text: as §1, §2
(§3) Kidney RNA was extracted with an RNeasy Fibrous Tissue Mini kit (Qiagen) and after DNAse I treatment, single-stranded cDNA was synthesized from 2 μg total RNA using the qScript cDNA Synthesis Kit (Quanta Biosciences) and diluted for real-time PCR. The expression of collagen 4a, fibronectin and TGFβ was quantified using the 7300 Real Time PCR System (Applied Biosystems). The assay was performed according to manufacturer instructions using the primers (Assay ID) represented at the table below supplied by Applied Biosystems. Data were normalized to the reference gene TATA-box Binding Protein (TBP) and presented as relative mRNA levels compared with Sham PBS 0.5% Eth treatment (Table 1).

TGF-β = assay: 5/6 nephrectomy rat model: kidney TGF-β mRNA, real-time PCR; format: in vivo, Sprague Dawley (SD) Rats; settings: kidney of Nx rats, 8 weeks; for reduction of TGF-β mRNA expression vs Nx PBS 0.5% Eth: VB-201 4 mg/kg or telmisartan 10 mg/kg; for TGF-β relative mRNA expression (mean ± SEM): normalized to TBP, relative to Sham PBS 0.5% Eth
From the text: as §1, §2, §3

CCCCCCCCCCCCCCCCOCC(COP(=O)([O-])OCC[N+](C)(C)C)OCCCCC(=O)O (centres unmarked) [VB-201, 1-hexadecyl-2-(4′-carboxybutyl)-glycero-3-phosphocholine]
decrease of extent of liver fibrosis (Sirius red fibrosis area) vs vehicle (NASH mouse model; VB-201 4 mg/kg once daily for three weeks): about 34% | reduction of liver inflammation (inflammation score) vs vehicle (NASH mouse model): 65% | Glomerular sclerosis, Global % (Mean ± S.E) (nephrectomized rats [1]): 5.4 ± 3.22% | Glomerular sclerosis, Global & Segmental % (Mean ± S.E) (nephrectomized rats [1]): 31.8 ± 4.92% | Glomerular sclerosis, Segmental % (Mean ± S.E) (nephrectomized rats [1]): 26.5 ± 4.39% | reduction of damaged glomeruli vs Nx PBS 0.5% Eth (nephrectomized rats [1]): 29% | reduction of sclerotic glomeruli vs Nx PBS 0.5% Eth (nephrectomized rats [1]): 34% | ED-1/CD68+ Glomerular monocytes/macrophages (Mean ± S.E) (nephrectomized rats [2]): 2.113±0.374 Cells/Glomeruli and 2.113 Cells/Glomeruli | ED-1/CD68+ Interstitial monocytes/macrophages (Mean ± S.E) (nephrectomized rats [2]): 269.25±25.41 Cells/mm^2 and 269.3 Cells/mm^2 | reduction of number of glomerular monocytes/macrophages vs Nx PBS 0.5% Eth (nephrectomized rats [2]): 42% | reduction of number of interstitial monocytes/macrophages vs Nx PBS 0.5% Eth (nephrectomized rats [2]): 49% | reduction of Collagen IV mRNA expression vs Nx PBS 0.5% Eth (Collagen IV): 42% | Collagen IV relative mRNA expression (mean ± SEM) (Collagen IV): 4.3±0.33 | reduction of TGF-β mRNA expression vs Nx PBS 0.5% Eth (TGF-β): 37% | TGF-β relative mRNA expression (mean ± SEM) (TGF-β): 5.3±0.33

CCCc1nc2c(C)cc(-c3nc4ccccc4n3C)cc2n1Cc1ccc(-c2ccccc2C(=O)O)cc1 [telmisartan, reference compound]
reduction of liver inflammation (inflammation score) vs vehicle (NASH mouse model): 77% | Glomerular sclerosis, Global % (Mean ± S.E) (nephrectomized rats [1]): 1.9 ± 1.60% | Glomerular sclerosis, Global & Segmental % (Mean ± S.E) (nephrectomized rats [1]): 21.0 ± 5.45% | Glomerular sclerosis, Segmental % (Mean ± S.E) (nephrectomized rats [1]): 19.1 ± 4.30% | reduction of damaged glomeruli vs Nx PBS 0.5% Eth (nephrectomized rats [1]): 31% | reduction of sclerotic glomeruli vs Nx PBS 0.5% Eth (nephrectomized rats [1]): 57% | ED-1/CD68+ Glomerular monocytes/macrophages (Mean ± S.E) (nephrectomized rats [2]): 3.185±0.427 Cells/Glomeruli and 3.185 Cells/Glomeruli | ED-1/CD68+ Interstitial monocytes/macrophages (Mean ± S.E) (nephrectomized rats [2]): 421.0±61.77 Cells/mm^2 and 421.0 Cells/mm^2 | reduction of number of glomerular monocytes/macrophages vs Nx PBS 0.5% Eth (nephrectomized rats [2]): 13% | reduction of number of interstitial monocytes/macrophages vs Nx PBS 0.5% Eth (nephrectomized rats [2]): 20% | reduction of Collagen IV mRNA expression vs Nx PBS 0.5% Eth (Collagen IV): 41% | Collagen IV relative mRNA expression (mean ± SEM) (Collagen IV): 4.4±0.23 | reduction of TGF-β mRNA expression vs Nx PBS 0.5% Eth (TGF-β): 44% | TGF-β relative mRNA expression (mean ± SEM) (TGF-β): 4.7±0.52
